In PMC12474041 (Toxins, 2025):
Read-outs that look alike come from different tables or passages of the source. Bridge positions count the residues as written; N and C are the ends.

Experiments:
[1] = cited from earlier work
Kv1.4 = assay: Whole-cell patch clamp, Kv1.4 in transfected HEK cells; conditions: 50 μM, room temperature, currents evoked at 0 mV, held at −80 mV
Procedure: (§1) Plasmids containing sodium channels or potassium channels were transfected into HEK cells (gifted from Rong’s lab at Hunan Normal University, Changsha, China [32]) using Lipofectamine 2000. After 24 h, whole-cell patch clamp recordings were made at room temperature. Using a drawn borosilicate glass electrode (resistance 3–5 MΩ) filled with intracellular solution, the current of the transfected cells was assessed using the MultiClamp 700B amplifier (Molecular Devices, Sunnyvale, America) and pCLAMP 10 software. We set the clamping voltage to −80 mV and the stimulation voltage to 0 mV.
(§2) The extracellular solution used to record the sodium ion channels included the following components (in mM): 150 NaCl, 2 KCl, 1.5 CaCl2, 1 MgCl2, and 10 HEPES, and the pH was adjusted to 7.4 with NaOH. To record the potassium ion channel, the extracellular solution contained (in mM) 140 NaCl, 2 KCl, 1.5 CaCl2, 1 MgCl2, and 10 HEPES, and the pH was adjusted to 7.4 using NaOH. The intracellular solution that recorded the sodium ion channel currents contained 10 mM NaCl, 10 mM EGTA, 135 mM CsCl, and 10 mM HEPES, and the pH was adjusted to 7.3 with CsOH. To record the potassium ion channel currents, the intracellular solution contained 10 mM EGTA, 140 mM KCl, 2.5 mM MgCl2, and 10 mM HEPES, and the pH was adjusted to 7.4 using NaOH.

Nav1.7 = assay: Whole-cell patch clamp, Nav1.7 in transfected HEK cells; conditions: room temperature, currents evoked at 0 mV, held at −80 mV
Procedure: as §1, §2

Kv4.2 = assay: Whole-cell patch clamp, Kv4.2 in transfected HEK cells; conditions: 50 μM, room temperature, currents evoked at 0 mV, held at −80 mV
Procedure: as §1, §2

Nav1.4 [2] = molecular target: T1, Nav1.4 (Homo sapiens, UniProt P35499); assay: Whole-cell patch clamp, Nav1.4 in transfected HEK cells
Procedure: as §1, §2

Kv1.3 = assay: Whole-cell patch clamp, Kv1.3 in transfected HEK cells; conditions: 50 μM, room temperature, currents evoked at 0 mV, held at −80 mV
Procedure: as §1, §2

Nav1.5 [3] = assay: Whole-cell patch clamp, Nav1.5 in transfected HEK cells; conditions: room temperature, currents evoked at 0 mV, held at −80 mV
Procedure: as §1, §2

Nav1.4 [4] = molecular target: T1, Nav1.4; design: expressed in transfected cells; host or cells: HEK cells; conditions: cited from earlier work
Nav1.5 [5] = conditions: cited from earlier work
patients with NDM = conditions: cited from earlier work
[6] = system: DIII S6 and DIV S6 of the sodium channel pore domain; conditions: cited from earlier work
[7] = system: G-protein-coupled GABAB receptors; conditions: cited from earlier work
[8] = system: N-type (Cav2.2) calcium channels; conditions: cited from earlier work

T1 sequence (P35499 whole entry): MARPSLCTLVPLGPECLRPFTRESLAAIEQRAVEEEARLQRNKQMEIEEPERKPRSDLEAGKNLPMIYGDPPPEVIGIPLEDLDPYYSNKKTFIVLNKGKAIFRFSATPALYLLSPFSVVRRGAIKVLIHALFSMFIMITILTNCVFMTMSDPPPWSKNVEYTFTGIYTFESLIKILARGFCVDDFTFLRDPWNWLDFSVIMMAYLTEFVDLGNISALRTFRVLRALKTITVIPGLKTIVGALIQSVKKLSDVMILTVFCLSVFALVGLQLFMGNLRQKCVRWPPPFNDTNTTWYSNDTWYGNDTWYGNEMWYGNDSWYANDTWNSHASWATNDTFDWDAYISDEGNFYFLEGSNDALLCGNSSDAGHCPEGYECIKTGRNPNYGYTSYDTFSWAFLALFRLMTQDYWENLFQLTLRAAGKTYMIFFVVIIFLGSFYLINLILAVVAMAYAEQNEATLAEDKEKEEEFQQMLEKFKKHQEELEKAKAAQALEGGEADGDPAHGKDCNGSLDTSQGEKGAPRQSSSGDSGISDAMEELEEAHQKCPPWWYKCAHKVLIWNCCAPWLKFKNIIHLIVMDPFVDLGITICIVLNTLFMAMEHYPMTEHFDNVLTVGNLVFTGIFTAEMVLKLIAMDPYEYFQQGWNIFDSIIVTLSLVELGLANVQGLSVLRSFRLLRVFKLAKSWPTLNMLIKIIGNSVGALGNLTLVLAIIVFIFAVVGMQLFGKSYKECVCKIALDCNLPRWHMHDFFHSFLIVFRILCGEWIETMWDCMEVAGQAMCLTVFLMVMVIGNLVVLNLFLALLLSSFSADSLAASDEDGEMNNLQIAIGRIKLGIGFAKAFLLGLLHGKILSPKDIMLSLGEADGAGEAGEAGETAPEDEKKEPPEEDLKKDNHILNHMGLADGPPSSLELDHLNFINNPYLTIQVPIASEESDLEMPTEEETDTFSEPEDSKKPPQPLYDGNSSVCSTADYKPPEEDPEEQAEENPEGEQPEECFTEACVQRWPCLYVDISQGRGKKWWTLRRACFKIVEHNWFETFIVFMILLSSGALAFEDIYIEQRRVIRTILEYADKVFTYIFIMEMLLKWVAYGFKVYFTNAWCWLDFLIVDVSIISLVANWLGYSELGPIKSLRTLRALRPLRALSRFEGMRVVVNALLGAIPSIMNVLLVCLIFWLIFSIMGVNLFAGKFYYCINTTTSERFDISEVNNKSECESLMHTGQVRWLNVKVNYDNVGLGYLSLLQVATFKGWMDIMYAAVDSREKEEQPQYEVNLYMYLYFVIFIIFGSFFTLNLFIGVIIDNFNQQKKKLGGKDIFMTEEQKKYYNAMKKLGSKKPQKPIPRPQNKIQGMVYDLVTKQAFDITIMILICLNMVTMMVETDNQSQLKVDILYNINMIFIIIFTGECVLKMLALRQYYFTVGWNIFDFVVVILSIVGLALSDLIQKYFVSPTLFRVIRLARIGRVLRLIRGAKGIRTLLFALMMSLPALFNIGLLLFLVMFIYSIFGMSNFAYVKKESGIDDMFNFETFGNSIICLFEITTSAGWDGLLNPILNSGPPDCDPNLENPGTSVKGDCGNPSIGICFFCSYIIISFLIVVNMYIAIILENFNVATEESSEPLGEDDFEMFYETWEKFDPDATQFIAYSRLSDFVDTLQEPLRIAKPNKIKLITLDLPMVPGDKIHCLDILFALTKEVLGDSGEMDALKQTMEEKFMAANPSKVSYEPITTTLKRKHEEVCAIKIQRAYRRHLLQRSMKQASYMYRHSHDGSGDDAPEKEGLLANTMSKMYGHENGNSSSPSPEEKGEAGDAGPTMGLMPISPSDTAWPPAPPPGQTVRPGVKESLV

## Cc1cccc(C)c1NC(=O)C(C)N (stereo not drawn) [Tocainide, tocainide]
[1]; can be fatal
  side effects: anemia, agranulocytosis, pulmonary fibrosis, interstitial pneumonia, and pulmonary edema

## GEFINGDCELPKVVGPCRAGFRRYYYNSSSKRCEKFIYGGCRGNANNFHTLEECEKVCGVRS (disulfide 8-58, 17-41, 33-54 (inferred)) [Avd3i, U-actitoxin-Avd3i]
Kv1.4
  effect on Kv1.4: no effect
Nav1.7
  effect on Nav1.7: did not inhibit
Kv4.2
  effect on Kv4.2: no effect
Nav1.4 [2]
  IC50: 25400 nM
Nav1.4 [2]; 50.0 μM perfusion, transfected HEK cells, room temperature, holding −80 mV, stimulation 0 mV
  inhibition of Nav1.4 channel at 50.0 μM: suppressed
Nav1.4 [2]; transfected HEK cells, whole-cell patch clamp
  concentration dependence of Nav1.4 inhibition: concentration-dependent manner
Kv1.3
  effect on Kv1.3: no effect
Nav1.5 [3]
  effect on Nav1.5: did not inhibit

## ATX-II
Nav1.4 [4]
  EC50: 109 nM
Nav1.5 [5]
  EC50: 49 nM

## Cc1cccc(C)c1OCC(C)N (stereo not drawn) [mexiletine]
Patients with NDM; patients with NDM
  effect on muscle stiffness: improving muscle stiffness in patients with NDM
[1]; sensitivity of different patients varies greatly
  side effects: indigestion
[6]
  binding site on sodium channel: binds to DIII S6 and DIV S6 of the sodium channel pore domain

## O=C(NCC1CCCCN1)c1cc(OCC(F)(F)F)ccc1OCC(F)(F)F (stereo not drawn) [flecainide]
Patients with NDM
  efficacy in patients with NDM: effective in some patients with NDM

## Vc1.1
[7]
  binding to GABAB receptors: binding to G-protein-coupled GABAB receptors
[8]
  direct binding to Cav2.2: do not directly bind
  inhibition of Cav2.2 channel function: indirectly inhibit channel function
